How the values were obtained:
[1] = target: T1, human CYP11B2 (Homo sapiens, UniProt P19099); test: V79-Human-CYP11B2 cell assay (aldosterone formation, HTRF); assay type: cell-based; conditions: V79 cells stably expressing human CYP11B2; substrate 125 nM 11-deoxycorticosterone; 3 hours
T1 construct: expressed in transfected cells; host or cells: V79 cells (clone V79-hCYP11B2-CLE9)
T1 sequence (P19099 25-503): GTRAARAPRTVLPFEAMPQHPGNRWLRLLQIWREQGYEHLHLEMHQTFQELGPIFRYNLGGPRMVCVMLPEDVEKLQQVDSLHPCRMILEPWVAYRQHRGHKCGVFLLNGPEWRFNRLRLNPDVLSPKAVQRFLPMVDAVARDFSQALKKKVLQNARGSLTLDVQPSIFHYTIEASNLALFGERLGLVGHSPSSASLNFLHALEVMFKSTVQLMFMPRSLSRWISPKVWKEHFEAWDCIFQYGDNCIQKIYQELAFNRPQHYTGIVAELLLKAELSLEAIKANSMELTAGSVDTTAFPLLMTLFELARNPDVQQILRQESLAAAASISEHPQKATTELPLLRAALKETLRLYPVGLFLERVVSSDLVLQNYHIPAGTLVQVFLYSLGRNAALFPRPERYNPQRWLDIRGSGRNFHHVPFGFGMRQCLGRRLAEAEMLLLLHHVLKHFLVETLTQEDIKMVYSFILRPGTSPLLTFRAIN
Protocol: (§1) Methods for V79-Human-CYP11B2 and V79-Human-CYP11B1 Assays: V79 cell lines stably expressing the either the human CYP11B2 or the human CYP11B1 enzyme were generated using a standard transfection protocol. V79 cells were transfected with plasmids pTriEx3-Hygro-hCyp11B2 or pTriEx3-Hygro-hCyp11B1 using Lipofectamine2000 reagent. V79 cells that stably express the human CYP11B2 or human CYP11B1 enzyme were selected for and maintained in DMEM supplemented with 10% FBS and 400 μg/mL hygromycin for ˜2 weeks. Single cell clones were generated by […] in DMEM supplemented with 10% FBS and 400 μg/mL hygromycin until single colonies were obtained. Clones V79-hCYP11B2-CLE9 and V79-hCYP11B1-8C7, were determined to produce the most aldosterone and cortisol, respectively, and were selected for inhibitor screening. For testing of inhibitors, cells were harvested at 80% confluency with 0.5% Trypsan-EDTA, washed once in PBS, and reconstituted in DMEM 0.1% BSA media at a cell concentration of 400,000 cells/mL. 25 μl of cells were added to a 384 well tissue culture treated plate and mixed with 0.25 μl of inhibitor or DMSO (1% final DMSO concentration) for 1 hour at 37° C., 5% CO2. After pre-incubation with inhibitor, the reaction was initiated by adding 5 μl of substrate (final concentration of 125 nM 11-deoxycorticosterone for the CYP11B2 assay or 250 nM 11-deoxycortisol for the CYP11B1 assay). The reaction was carried out for 3 hours at 37° C., 5% CO2 and was stopped by harvesting the supernatants. The amount of product in the supernatant (aldosterone for CYP11B2 assay and cortisol for the CYP11B1 assay) was measured using HTRF-based assay kit (Aldosterone HTRF-CisBio#64ALDPEB, Cortisol HTRF-CisBio #63IDC002-CORT). IC50's for the inhibitor were determined by plotting the amount of product formed against the concentration of inhibitor using sigmoidal dose-response curve (variable slope) fit in GraphPad.

[2] = target: T2, human CYP11B1 (Homo sapiens, UniProt P15538); test: V79-Human-CYP11B1 cell assay (cortisol formation, HTRF); assay type: cell-based; conditions: V79 cells stably expressing human CYP11B1; substrate 250 nM 11-deoxycortisol; 3 hours
T2 construct: expressed in transfected cells; host or cells: V79 cells (clone V79-hCYP11B1-8C7)
T2 sequence (P15538 25-503): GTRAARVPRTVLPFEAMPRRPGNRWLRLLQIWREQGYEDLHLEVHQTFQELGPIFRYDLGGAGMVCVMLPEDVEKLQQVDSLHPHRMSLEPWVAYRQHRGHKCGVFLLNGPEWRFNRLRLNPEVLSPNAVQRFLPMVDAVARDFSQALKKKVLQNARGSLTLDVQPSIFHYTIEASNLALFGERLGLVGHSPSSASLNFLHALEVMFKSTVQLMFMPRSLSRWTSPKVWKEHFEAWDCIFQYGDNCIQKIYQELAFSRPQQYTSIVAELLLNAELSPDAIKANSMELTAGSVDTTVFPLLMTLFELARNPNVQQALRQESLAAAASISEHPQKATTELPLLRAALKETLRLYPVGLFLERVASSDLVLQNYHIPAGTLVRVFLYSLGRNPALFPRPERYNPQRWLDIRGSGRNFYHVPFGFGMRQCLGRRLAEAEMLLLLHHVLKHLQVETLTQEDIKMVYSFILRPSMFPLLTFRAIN
Protocol: as §1, with “Clones V79-hCYP11B2-CLE9 and V79-hCYP11B1-8C7, were determined to produce the most aldosterone and cortisol, respectively, and were selected for inhibitor screening.” left out, “After pre-incubation with inhibitor, the reaction was initiated by adding 5 μl of substrate (final concentration of 125 nM 11-deoxycorticosterone for the CYP11B2 assay or 250 nM 11-deoxycortisol for the CYP11B1 assay).” left out

| SMILES | IC50 [1] [nM] | IC50 [2] [nM] |
| --- | --- | --- |
| Cn1c(-c2cccnc2)nc2cc(F)ccc21 [Example 4, 5-fluoro-1-methyl-2-(pyridin-3-yl)-1H-benzimidazole] | 26 | 4080 |
| Fc1ccc2nc(-c3cncc4ccccc34)n(C3CC3)c2c1 [Example 16, 4-(1-cyclopropyl-6-fluoro-1H-benzimidazol-2-yl)isoquinoline] | 0.1 | 59.2 |
| Fc1ccc2c(c1)nc(-c1cccnc1)n2C1CC1 [Example 17, 1-cyclopropyl-5-fluoro-2-(pyridin-3-yl)-1H-benzimidazole] | 28 | 3980 |
| CCn1c(-c2cncc3ccccc23)nc2cc(F)ccc21 [Example 26, 4-(1-ethyl-5-fluoro-1H-benzimidazol-2-yl)isoquinoline] | 3.8 | 304 |
| Fc1cc2nc(-c3cncc4ccccc34)n(C3CC3)c2cc1F [Example 32, 4-(1-cyclopropyl-5,6-difluoro-1H-benzimidazol-2-yl)isoquinoline] | 0.1 | 9.6 |
| CC(C)(O)c1cncc(-c2nc3cc(F)c(F)cc3n2C2CC2)c1 [Example 38, 2-[5-(1-Cyclopropyl-5,6-difluoro-1H-benzimidazol-2-yl)pyridin-3-yl]propan-2-ol] | 0.3 | 42 |
| COC(C)(C)c1cncc(-c2nc3cc(F)c(F)cc3n2C2CC2)c1 [Example 39, 1-cyclopropyl-5,6-difluoro-2-[5-(2-methoxypropan-2-yl)pyridin-3-yl]-1H-benzimidazole] | 0.3 | 3.4 |
| COC(C)(C)c1cncc(-c2nc3ccc(F)cc3n2C2CC2)c1 [Example 51, 1-cyclopropyl-6-fluoro-2-[5-(2-methoxypropan-2-yl)pyridin-3-yl]-1H-benzimidazole] | 0.2 | 4.7 |
| N#Cc1ccc2nc(-c3cccnc3)n(C3CC3)c2c1 [Example 75, 1-cyclopropyl-2-(pyridin-3-yl)-1H-benzo[d]imidazole-6-carbonitrile] | 1.23 | 374 |
| COc1cncc(-c2nc3ccc(C#N)cc3n2C2CC2)c1 [Example 76, 1-cyclopropyl-2-(5-methoxypyridin-3-yl)-1H-benzimidazole-6-carbonitrile] | 0.422 | 1750 |
| Cn1c(-c2cccnc2)nc2ccc(C#N)cc21 [Example 99, 1-methyl-2-(pyridin-3-yl)-1H-benzimidazole-6-carbonitrile] | 0.316 | 98 |
| Fc1cncc(-c2nc3cc(F)c(Cl)cc3n2C2CC2)c1 [Example 129, 6-chloro-1-cyclopropyl-5-fluoro-2-(5-fluoropyridin-3-yl)-1H-benzimidazole] | 0.81 | 161 |
| Fc1cc2nc(-c3cncc4ccccc34)n(C3CC3)c2cc1Cl [Example 131, 4-(6-chloro-1-cyclopropyl-5-fluoro-1H-benzimidazol-2-yl)isoquinoline] | 0.126 | 122 |
| Fc1cc2nc(-c3cccnc3)n(C3CC3)c2cc1Cl [Example 132, 6-chloro-1-cyclopropyl-5-fluoro-2-(pyridin-3-yl)-1H-benzimidazole] | 0.597 | 10000 |
| Cc1cncc(-c2nc3cc(F)c(Cl)cc3n2C2CC2)c1 [Example 135, 6-chloro-1-cyclopropyl-5-fluoro-2-(5-methylpyridin-3-yl)-1H-benzimidazole] | 0.226 | 602 |
| Fc1cncc(-c2nc3ccc(Br)cc3n2C2CC2)c1 [Example 172, 6-bromo-1-cyclopropyl-2-(5-fluoropyridin-3-yl)-1H-benzimidazole] | 3.55 | 946 |
| Cc1cncc(-c2nc3cc(F)c(F)cc3n2C)c1 [Example 212, 5,6-difluoro-1-methyl-2-(5-methylpyridin-3-yl)-1H-benzimidazole] | 0.585 | 149 |
| COc1c(C)cncc1-c1nc2cc(F)c(F)cc2n1C1CC1 [Example 226, 1-cyclopropyl-5,6-difluoro-2-(4-methoxy-5-methylpyridin-3-yl)-1H-benzimidazole] | 1.12 | 790 |

Results, then the compound that gave them:

| IC50 [1] [nM] | IC50 [2] [nM] | SMILES |
| --- | --- | --- |
| 0.2 | 162 | COc1cncc(-c2nc3ccc(Cl)cc3n2C)c1 [Example 232, 6-chloro-2-(5-methoxypyridin-3-yl)-1-methyl-1H-benzimidazole] |
| 1.15 | 270 | Cn1c(-c2cccnc2)nc2ccc(Cl)cc21 [Example 233, 6-chloro-1-methyl-2-(pyridin-3-yl)-1H-benzimidazole] |
| 1.59 | 425 | Clc1ccc2nc(-c3cccnc3)n(C3CC3)c2c1 [Example 250, 6-chloro-1-cyclopropyl-2-(pyridin-3-yl)-1H-benzimidazole] |
| 0.346 | 490 | Cn1c(-c2cncc3ccccc23)nc2cc(F)cc(F)c21 [Example 256, 4-(5,7-difluoro-1-methyl-1H-benzimidazol-2-yl)isoquinoline] |
| 0.151 | 206 | Cn1c(-c2cncc3ccccc23)nc2ccc(F)c(F)c21 [Example 267] |
| 0.234 | 117 | Cc1cncc(-c2nc3ccc(F)c(F)c3n2C)c1C [Example 268, 2-(4,5-dimethylpyridin-3-yl)-6,7-difluoro-1-methyl-1H-benzimidazole] |
| 0.282 | 206 | Fc1ccc2nc(-c3cncc4ccccc34)n(C3CC3)c2c1F [Example 279, 4-(1-cyclopropyl-6,7-difluoro-1H-benzimidazol-2-yl)isoquinoline] |
| 0.417 | 295 | Cc1cncc(-c2nc3ccc(F)c(F)c3n2C2CC2)c1C [Example 282, 1-cyclopropyl-2-(4,5-dimethylpyridin-3-yl)-6,7-difluoro-1H-benzimidazole] |
| 1.35 | 300 | Cc1ccncc1-c1nc2ccc(F)c(F)c2n1C1CC1 [Example 284, 1-cyclopropyl-6,7-difluoro-2-(4-methylpyridin-3-yl)-1H-benzimidazole] |
